Experimental data reported in PMC4362760, “JAK2^V617F Drives Mcl-1 Expression and Sensitizes Hematologic Cell Lines to Dual Inhibition of JAK2 and Bcl-xL” (PLoS ONE, 2015).

How the values were obtained:
[1] = tested on: K562 cells; assay: Cell viability of K562 cells after siRNA transfection and 72 hr ABT-263; assay type: cell-based
Procedure: (§1) Transfection of siRNAs was performed using Lipofectamine RNAiMAX according to the manufacturer’s recommendations. […] Caspase-3 activity was determined using the Caspase-GLO 3/7 Assay (Promega) in parallel with the CellTiter-GLO viability assay (Promega). The data are expressed as Caspase-3/7 activity divided by cell viability. […]
Data are means of duplicate samples and are representative of two independent experiments. (XLS) Click here for additional data file.

[2] = tested on: multiple xenograft models; conditions: oral, single agent and in combination with standard of care chemotherapies; cited from earlier work
[3] = tested on: HEL cells; assay: Cell viability of HEL cells after siRNA transfection and 72 hr ABT-263; assay type: cell-based
Procedure: as §1

CC1(C)CCC(c2ccc(Cl)cc2)=C(CN2CCN(c3ccc(C(=O)NS(=O)(=O)c4ccc(N[C@H](CCN5CCOCC5)CSc5ccccc5)c(S(=O)(=O)C(F)(F)F)c4)cc3)CC2)C1 [ABT-263]
Cell Viability (% Inhibiton) ([1]; K562, Unt., ABT-263 0.003 uM): 0% | Cell Viability (% Inhibiton) ([1]; K562, Unt., ABT-263 0.01 uM): 0% | Cell Viability (% Inhibiton) ([1]; K562, Unt., ABT-263 0.03 uM): 0% | Cell Viability (% Inhibiton) ([1]; K562, Unt., ABT-263 0.1 uM): 0% | Cell Viability (% Inhibiton) ([1]; K562, Unt., ABT-263 0.3 uM): 0% | Cell Viability (% Inhibiton) ([1]; K562, Unt., ABT-263 1 uM): 5% | Cell Viability (% Inhibiton) ([1]; K562, siMcl1-1, ABT-263 0.003 uM): 0% | Cell Viability (% Inhibiton) ([1]; K562, siMcl1-1, ABT-263 0.01 uM): 0% | Cell Viability (% Inhibiton) ([1]; K562, siMcl1-1, ABT-263 0.03 uM): 0% | Cell Viability (% Inhibiton) ([1]; K562, siMcl1-1, ABT-263 0.1 uM): 0% | Cell Viability (% Inhibiton) ([1]; K562, siMcl1-1, ABT-263 0.3 uM): 0% | Cell Viability (% Inhibiton) ([1]; K562, siMcl1-1, ABT-263 1 uM): 0% | Cell Viability (% Inhibiton) ([1]; K562, siMcl1-2, ABT-263 0.003 uM): 0% | Cell Viability (% Inhibiton) ([1]; K562, siMcl1-2, ABT-263 0.01 uM): 0% | Cell Viability (% Inhibiton) ([1]; K562, siMcl1-2, ABT-263 0.03 uM): 0% | Cell Viability (% Inhibiton) ([1]; K562, siMcl1-2, ABT-263 0.1 uM): 2% | Cell Viability (% Inhibiton) ([1]; K562, siMcl1-2, ABT-263 0.3 uM): 11% | Cell Viability (% Inhibiton) ([1]; K562, siMcl1-2, ABT-263 1 uM): 21% | Cell Viability (% Inhibiton) ([1]; K562, siMcl1-3, ABT-263 0.003 uM): 0% | Cell Viability (% Inhibiton) ([1]; K562, siMcl1-3, ABT-263 0.01 uM): 0% | Cell Viability (% Inhibiton) ([1]; K562, siMcl1-3, ABT-263 0.03 uM): 0% | Cell Viability (% Inhibiton) ([1]; K562, siMcl1-3, ABT-263 0.1 uM): 0% | Cell Viability (% Inhibiton) ([1]; K562, siMcl1-3, ABT-263 0.3 uM): 13% | Cell Viability (% Inhibiton) ([1]; K562, siMcl1-3, ABT-263 1 uM): 32% | Cell Viability (% Inhibiton) ([1]; K562, siMcl1-4, ABT-263 0.003 uM): 0% | Cell Viability (% Inhibiton) ([1]; K562, siMcl1-4, ABT-263 0.01 uM): 3% | Cell Viability (% Inhibiton) ([1]; K562, siMcl1-4, ABT-263 0.03 uM): 22% | Cell Viability (% Inhibiton) ([1]; K562, siMcl1-4, ABT-263 0.1 uM): 60% | Cell Viability (% Inhibiton) ([1]; K562, siMcl1-4, ABT-263 0.3 uM): 75% | Cell Viability (% Inhibiton) ([1]; K562, siMcl1-4, ABT-263 1 uM): 80% | Cell Viability (% Inhibiton) ([1]; K562, siNT-1, ABT-263 0.003 uM): 0% | Cell Viability (% Inhibiton) ([1]; K562, siNT-1, ABT-263 0.01 uM): 0% | Cell Viability (% Inhibiton) ([1]; K562, siNT-1, ABT-263 0.03 uM): 0% | Cell Viability (% Inhibiton) ([1]; K562, siNT-1, ABT-263 0.1 uM): 0% | Cell Viability (% Inhibiton) ([1]; K562, siNT-1, ABT-263 0.3 uM): 2% | Cell Viability (% Inhibiton) ([1]; K562, siNT-1, ABT-263 1 uM): 10% | activity in xenograft models [2]: pronounced oral activity | Cell Viability (% Inhibiton) ([3]; Unt., ABT-263 0.003 uM): 0% | Cell Viability (% Inhibiton) ([3]; Unt., ABT-263 0.01 uM): 0% | Cell Viability (% Inhibiton) ([3]; Unt., ABT-263 0.03 uM): 3% | Cell Viability (% Inhibiton) ([3]; Unt., ABT-263 0.1 uM): 37% | Cell Viability (% Inhibiton) ([3]; Unt., ABT-263 0.3 uM): 94% | Cell Viability (% Inhibiton) ([3]; Unt., ABT-263 1 uM): 97% | Cell Viability (% Inhibiton) ([3]; siMcl1-1, ABT-263 0.003 uM): 0% | Cell Viability (% Inhibiton) ([3]; siMcl1-1, ABT-263 0.01 uM): 0% | Cell Viability (% Inhibiton) ([3]; siMcl1-1, ABT-263 0.03 uM): 0% | Cell Viability (% Inhibiton) ([3]; siMcl1-1, ABT-263 0.1 uM): 40% | Cell Viability (% Inhibiton) ([3]; siMcl1-1, ABT-263 0.3 uM): 97% | Cell Viability (% Inhibiton) ([3]; siMcl1-1, ABT-263 1 uM): 100% | Cell Viability (% Inhibiton) ([3]; siMcl1-2, ABT-263 0.003 uM): 0% | Cell Viability (% Inhibiton) ([3]; siMcl1-2, ABT-263 0.01 uM): 21% | Cell Viability (% Inhibiton) ([3]; siMcl1-2, ABT-263 0.03 uM): 38% | Cell Viability (% Inhibiton) ([3]; siMcl1-2, ABT-263 0.1 uM): 79% | Cell Viability (% Inhibiton) ([3]; siMcl1-2, ABT-263 0.3 uM): 100% | Cell Viability (% Inhibiton) ([3]; siMcl1-2, ABT-263 1 uM): 100% | Cell Viability (% Inhibiton) ([3]; siMcl1-3, ABT-263 0.003 uM): 0% | Cell Viability (% Inhibiton) ([3]; siMcl1-3, ABT-263 0.01 uM): 37% | Cell Viability (% Inhibiton) ([3]; siMcl1-3, ABT-263 0.03 uM): 65% | Cell Viability (% Inhibiton) ([3]; siMcl1-3, ABT-263 0.1 uM): 90% | Cell Viability (% Inhibiton) ([3]; siMcl1-3, ABT-263 0.3 uM): 100% | Cell Viability (% Inhibiton) ([3]; siMcl1-3, ABT-263 1 uM): 100% | Cell Viability (% Inhibiton) ([3]; siMcl1-4, ABT-263 0.003 uM): 0% | Cell Viability (% Inhibiton) ([3]; siMcl1-4, ABT-263 0.01 uM): 58% | Cell Viability (% Inhibiton) ([3]; siMcl1-4, ABT-263 0.03 uM): 85% | Cell Viability (% Inhibiton) ([3]; siMcl1-4, ABT-263 0.1 uM): 94% | Cell Viability (% Inhibiton) ([3]; siMcl1-4, ABT-263 0.3 uM): 100% | Cell Viability (% Inhibiton) ([3]; siMcl1-4, ABT-263 1 uM): 100% | Cell Viability (% Inhibiton) ([3]; siNT-1, ABT-263 0.003 uM): 0% | Cell Viability (% Inhibiton) ([3]; siNT-1, ABT-263 0.01 uM): 0% | Cell Viability (% Inhibiton) ([3]; siNT-1, ABT-263 0.03 uM): 7% | Cell Viability (% Inhibiton) ([3]; siNT-1, ABT-263 0.1 uM): 30% | Cell Viability (% Inhibiton) ([3]; siNT-1, ABT-263 0.3 uM): 93% | Cell Viability (% Inhibiton) ([3]; siNT-1, ABT-263 1 uM): 98%
